How the values were obtained:
[1] = test system: human embryonic stem cell derived neural stem cells (NSCs); experiment: Neural stem cell proliferation assay (neurogenesis assay, ATP/CellTiterGlo); type: cell-based; settings: 96 h, compound concentration at which 150% activity of control (100%) is reached, NSC proliferation by ATP level after 4 days incubation, dose response 8 μM to 8 nM
Description: Neural Stem Cell Proliferation Assay
Neurogenic properties of small molecules are determined based on the proliferation of human embryonic stem cell derived neural stem cells (NSCs) which were derived via a dual smad inhibition as previously described (Chambers, S. M., et al., Highly efficient neural conversion of human ES and iPS cells by dual inhibition of SMAD signaling, Nature biotechnology, 2009. 27(3): p. 275-80.)
Compounds respond is measured by the increase in cells based on ATP levels (Promega:CellTiterGlo®) after an incubation period of 4 days.
NSCs are thawed and expanded over 3 passages. On the 14th day, NSCs are seeded in Polyornithin/Laminin coated 384 well plates at a cell density of 21,000 cells/cm^2 in a media volume of 38 μL.
4 hours after cell seeding, compound solutions are added at a volume of 2 μl. Stock solutions of the compounds (water, 5% DMSO) are diluted to obtain a dose response (11 points, dilution factor is 2), ranging from 8 μM to 8 nM. Controls are run to consistently determine the neurogenic properties of the cells:
Negative (neutral) control is cell culture Media (final DMSO concentration: 0.25%).
Positive controls are: • 1. cell culture Media+100 ng/ml FGF2 (final DMSO concentration: 0.1%) • 2. cell culture Media+20 ng/ml EGF (final DMSO concentration: 0.1%) • 3. cell culture Media+100 ng/ml Wnt3a (final DMSO concentration: 0.1%)
After 4 days incubation at 37° C., 5% CO2, the amount of ATP per well is quantified. The ATP concentration is proportional to the cell number. ATP is quantified by using the Promega CellTiterGlo® kit. The CellTiterGlo® reagents contain a cell lysis buffer, a thermo stable luciferase (UltraGlo™ recombinant luciferase), magnesium and luciferin. Luciferin reacts with ATP producing oxyluciferin, AMP and light. The luminescence signal is proportional to the ATP content.
The value of negative (neutral) control is determined for each assay plate by taking the average of 16 negative control wells. The neurogenic compound response is calculated for each compound as (compound/Negative Control)*100.
The values of EC150 from the dose response curve are determined for each test compound. The EC150 is the compound concentration at which 150% activity of control (100%) is reached.

| Structure (SMILES) | EC150 [1] [µM] | melting point [°C] |
| --- | --- | --- |
| Fc1ccc(-n2nccc2-c2ccc3ncn(-c4ccc(Cl)cc4)c3c2)cc1 [Example 19, 1-(4-Chloro-phenyl)-6-[2-(4-fluoro-phenyl)-2H-pyrazol-3-yl]-1H-benzoimidazole] | 0.09 | 173 |
| Cc1ccc(-n2nccc2-c2ccc3ncn(-c4ccc(C)cc4)c3c2)cc1 [Example 1, 1-p-Tolyl-6-(2-p-tolyl-2H-pyrazol-3-yl)-1H-benzoimidazole] | 0.008 | 165 |
| Fc1ccc(-n2cnc3ccc(-c4ccnn4-c4ccc(C(F)(F)F)cc4)cc32)c(F)c1 [Example 15, 1-(2,4-Difluoro-phenyl)-6-[2-(4-trifluoromethyl-phenyl)-2H-pyrazol-3-yl]-1H-benzoimidazole] | 1.33 | 129 |
| c1ccc(-n2nccc2-c2ccc3ncn(-c4ccccc4)c3c2)cc1 [Example 2, 1-Phenyl-6-(2-phenyl-2H-pyrazol-3-yl)-1H-benzoimidazole] | 0.014 | 194 |
| Cc1ccc(-n2nccc2-c2ccc3ncn(-c4ccccc4)c3c2)cc1 [Example 4, 1-Phenyl-6-(2-p-tolyl-2H-pyrazol-3-yl)-1H-benzoimidazole] | 0.015 |  |
| Clc1ccc(-n2nccc2-c2ccc3ncn(-c4ccc(Cl)cc4)c3c2)cc1 [Example 13, 1-(4-Chloro-phenyl)-6-[2-(4-chloro-phenyl)-2H-pyrazol-3-yl]-1H-benzoimidazole] | 0.082 | 182 |
| Fc1ccc(-n2nccc2-c2ccc3ncn(-c4ccccc4)c3c2)cc1 [Example 3, 6-[2-(4-Fluoro-phenyl)-2H-pyrazol-3-yl]-1-phenyl-1H-benzoimidazole] | 0.024 | 201 |
| Fc1cc(Cl)ccc1-n1cnc2ccc(-c3ccnn3-c3ccc(Cl)cc3)cc21 [Example 23, 1-(4-Chloro-2-fluoro-phenyl)-6-[2-(4-chloro-phenyl)-2H-pyrazol-3-yl]-1H-benzoimidazole] | 0.17 | 158 |
| CS(=O)(=O)c1ccc(-n2cnc3ccc(-c4ccnn4-c4ccc(Cl)cc4)cc32)cc1 [Example 27, 6-[2-(4-Chloro-phenyl)-2H-pyrazol-3-yl]-1-(4-methanesulfonyl-phenyl)-1H-benzoimidazole] | 0.16 | 280 |
| COc1ccc(-n2cnc3ccc(-c4ccnn4-c4ccc(Cl)cc4)cc32)cc1 [Example 25, 6-[2-(4-Chloro-phenyl)-2H-pyrazol-3-yl]-1-(4-methoxy-phenyl)-1H-benzoimidazole] | 0.056 | 163 |
| Fc1ccc(-n2cnc3ccc(-c4ccnn4-c4ccc(Cl)cc4)cc32)c(F)c1 [Example 16, 6-[2-(4-Chloro-phenyl)-2H-pyrazol-3-yl]-1-(2,4-difluoro-phenyl)-1H-benzoimidazole] | 0.19 | 133 |
| Fc1ccc(-n2nccc2-c2ccc3ncn(-c4ccc(Cl)cc4F)c3c2)cc1 [Example 22, 1-(4-Chloro-2-fluoro-phenyl)-6-[2-(4-fluoro-phenyl)-2H-pyrazol-3-yl]-1H-benzoimidazole] | 0.084 | 153 |
| Cc1ccc(-n2nccc2-c2ccc3ncn(-c4ccc(F)cc4)c3c2)cc1 [Example 9, 1-(4-Fluoro-phenyl)-6-(2-p-tolyl-2H-pyrazol-3-yl)-1H-benzoimidazole] | 0.009 |  |
| Fc1ccc(-n2nccc2-c2ccc3ncn(-c4ccc(F)cc4)c3c2)cc1 [Example 8, 1-(4-Fluoro-phenyl)-6-[2-(4-fluoro-phenyl)-2H-pyrazol-3-yl]-1H-benzoimidazole] | 0.044 | 173 |
| COc1ccc(-n2cnc3ccc(-c4ccnn4-c4ccc(F)cc4)cc32)cc1 [Example 24, 6-[2-(4-Fluoro-phenyl)-2H-pyrazol-3-yl]-1-(4-methoxy-phenyl)-1H-benzoimidazole] | 0.021 | 143 |
| Fc1ccc(-n2cncc2-c2ccc3ncn(-c4ccc(F)cc4)c3c2)cc1 [Example 30, 1-(4-Fluoro-phenyl)-6-[3-(4-fluoro-phenyl)-3H-imidazol-4-yl]-1H-benzoimidazole] | 0.11 | 247 |
| FC(F)(F)c1ccc(-n2cnc3ccc(-c4ccnn4-c4ccc(Cl)cc4)cc32)cc1 [Example 14, 6-[2-(4-Chloro-phenyl)-2H-pyrazol-3-yl]-1-(4-trifluoromethyl-phenyl)-1H-benzoimidazole] | 0.62 | 196 |
| FC(F)(F)c1ccc(-n2nccc2-c2ccc3ncn(-c4ccc(Cl)cc4)c3c2)cc1 [Example 12, 1-(4-Chloro-phenyl)-6-[2-(4-trifluoromethyl-phenyl)-2H-pyrazol-3-yl]-1H-benzoimidazole] | 0.71 | 198 |
| CS(=O)(=O)c1ccc(-n2cnc3ccc(-c4ccnn4-c4ccc(F)cc4)cc32)cc1 [Example 26, 6-[2-(4-Fluoro-phenyl)-2H-pyrazol-3-yl]-1-(4-methanesulfonyl-phenyl)-1H-benzoimidazole] | 0.28 | 247 |
| Cc1ccc(-n2cnc3ccc(-c4ccnn4-c4ccccc4)cc32)cc1 [Example 5, 6-(2-Phenyl-2H-pyrazol-3-yl)-1-p-tolyl-1H-benzoimidazole] | 0.0165 | 146 |
| Fc1ccc(-n2cnc3ccc(-c4ccnn4-c4ccc(Cl)cc4)cc32)cc1 [Example 11, 6-[2-(4-Chloro-phenyl)-2H-pyrazol-3-yl]-1-(4-fluoro-phenyl)-1H-benzoimidazole] | 0.11 | 180 |
| Fc1ccc(-n2cnc3ccc(-c4ccnn4-c4ccc(C(F)(F)F)cc4)cc32)cc1 [Example 10, 1-(4-Fluoro-phenyl)-6-[2-(4-trifluoromethyl-phenyl)-2H-pyrazol-3-yl]-1H-benzoimidazole] | 1.1 | 167 |
| Fc1ccc(-n2cnc3ccc(-c4cncn4-c4ccccc4)cc32)cc1 [Example 28, 1-(4-Fluoro-phenyl)-6-(3-phenyl-3H-imidazol-4-yl)-1H-benzoimidazole] | 0.07 | 216 |
| Fc1ccc(-n2cnc3ccc(-c4ccnn4-c4ccccc4)cc32)cc1 [Example 7, 1-(4-Fluoro-phenyl)-6-(2-phenyl-2H-pyrazol-3-yl)-1H-benzoimidazole] | 0.031 | 194 |
| Clc1ccc(-n2nccc2-c2ccc3ncn(-c4ccncc4)c3c2)cc1 [Example 21, 6-[2-(4-Chloro-phenyl)-2H-pyrazol-3-yl]-1-pyridin-4-yl-1H-benzoimidazole] | 0.036 | 203 |
| Fc1ccc(-n2cnc3ccc(-c4cncn4-c4ccc(Cl)cc4)cc32)cc1 [Example 29, 6-[3-(4-Chloro-phenyl)-3H-imidazol-4-yl]-1-(4-fluoro-phenyl)-1H-benzoimidazole] | 0.074 | 254 |
| Fc1ccc(-n2nccc2-c2ccc3ncn(-c4ccc(C(F)(F)F)cc4)c3c2)cc1 [Example 18, 6-[2-(4-Fluoro-phenyl)-2H-pyrazol-3-yl]-1-(4-trifluoromethyl-phenyl)-1H-benzoimidazole] | 0.41 | 204 |
| Fc1ccc(-n2nccc2-c2ccc3ncn(-c4ccncc4)c3c2)cc1 [Example 20, 6-[2-(4-Fluoro-phenyl)-2H-pyrazol-3-yl]-1-pyridin-4-yl-1H-benzoimidazole] | 0.044 | 199 |
| Fc1ccc(-n2nccc2-c2ccc3ncn(-c4ccc(F)cc4F)c3c2)cc1 [Example 17, 1-(2,4-Difluoro-phenyl)-6-[2-(4-fluoro-phenyl)-2H-pyrazol-3-yl]-1H-benzoimidazole] | 0.047 | 152 |
| Cc1ccc(-n2cnc3ccc(-c4ccnn4-c4ccc(F)cc4)cc32)cc1 [Example 6, 6-[2-(4-Fluoro-phenyl)-2H-pyrazol-3-yl]-1-p-tolyl-1H-benzoimidazole] | 0.0195 | 149 |
